# Data reported in ChEMBL document CHEMBL5223094, “Recent advancements in chromone as a privileged scaffold towards the development of small molecules for neurodegenerative therapeutics” (RSC Med Chem, 2022).
# What was measured:
# Acetylcholinesterase [1] = molecular target: Acetylcholinesterase (Electrophorus electricus, UniProt O42275); assay: Inhibition of electric eel AChE using acetylthiocholine iodide as substrate preincubated for 15 mins followed by substrate addition by Ellman's method
# Cholinesterase [2] = molecular target: Cholinesterase (Equus caballus, UniProt P81908); assay: Inhibition of equine serum BuChE using butyrylthiocholine chloride as substrate preincubated for 15 mins followed by substrate addition by Ellman's method
# Sequence of Cholinesterase (Equus caballus, UniProt P81908) (P81908 whole entry): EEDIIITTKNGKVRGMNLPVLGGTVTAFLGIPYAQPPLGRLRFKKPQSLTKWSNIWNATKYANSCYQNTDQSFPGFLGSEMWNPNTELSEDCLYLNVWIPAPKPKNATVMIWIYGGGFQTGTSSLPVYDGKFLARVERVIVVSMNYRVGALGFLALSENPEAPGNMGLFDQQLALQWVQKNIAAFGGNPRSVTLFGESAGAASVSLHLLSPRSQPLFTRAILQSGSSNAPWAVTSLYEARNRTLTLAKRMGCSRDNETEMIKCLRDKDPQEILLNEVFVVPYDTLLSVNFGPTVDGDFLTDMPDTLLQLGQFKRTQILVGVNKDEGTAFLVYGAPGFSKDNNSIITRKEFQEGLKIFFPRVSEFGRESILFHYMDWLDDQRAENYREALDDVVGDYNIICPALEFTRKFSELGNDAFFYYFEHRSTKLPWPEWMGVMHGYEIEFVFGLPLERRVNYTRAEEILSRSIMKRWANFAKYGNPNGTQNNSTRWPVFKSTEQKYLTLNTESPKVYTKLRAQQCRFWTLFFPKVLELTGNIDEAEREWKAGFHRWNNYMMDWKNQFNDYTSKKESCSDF
# [3] = molecular target: Amyloid-beta precursor protein (Homo sapiens) (UniProt P05067); assay: Inhibition of self-induced amyloid beta (1 to 42) (unknown origin) aggregation at 10 uM incubated for 48 hrs by ThT fluorometric assay
# Sequence of Amyloid-beta precursor protein (Homo sapiens) (P05067 whole entry): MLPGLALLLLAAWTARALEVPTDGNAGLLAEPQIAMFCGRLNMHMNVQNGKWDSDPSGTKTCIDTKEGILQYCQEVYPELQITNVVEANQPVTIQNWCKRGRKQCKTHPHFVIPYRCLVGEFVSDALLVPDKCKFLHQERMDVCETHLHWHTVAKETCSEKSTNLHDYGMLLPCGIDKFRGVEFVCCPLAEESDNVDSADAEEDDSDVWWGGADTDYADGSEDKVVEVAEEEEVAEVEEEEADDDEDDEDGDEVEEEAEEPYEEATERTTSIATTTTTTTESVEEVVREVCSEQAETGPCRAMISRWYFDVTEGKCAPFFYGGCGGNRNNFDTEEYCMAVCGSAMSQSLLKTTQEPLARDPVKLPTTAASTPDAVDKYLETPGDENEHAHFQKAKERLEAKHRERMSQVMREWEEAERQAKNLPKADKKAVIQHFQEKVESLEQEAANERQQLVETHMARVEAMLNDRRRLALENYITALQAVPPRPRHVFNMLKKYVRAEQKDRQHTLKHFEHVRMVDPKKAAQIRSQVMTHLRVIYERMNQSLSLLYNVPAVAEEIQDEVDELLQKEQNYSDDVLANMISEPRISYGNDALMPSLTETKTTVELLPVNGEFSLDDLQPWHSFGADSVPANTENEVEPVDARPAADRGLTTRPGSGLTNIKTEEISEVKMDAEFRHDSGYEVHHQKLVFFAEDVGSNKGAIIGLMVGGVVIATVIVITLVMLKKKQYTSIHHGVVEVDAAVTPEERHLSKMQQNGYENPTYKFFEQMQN
# [4] = molecular target: Amyloid-beta precursor protein (Homo sapiens) (UniProt P05067); assay: Inhibition of electric eel AChE-indued amyloid beta (1 to 42) (unknown origin) aggregation at 100 uM incubated for 24 hrs by ThT fluorometric assay
# Homo sapiens [5] = organism: Homo sapiens; assay: Selectivity index, ratio of IC50 for inhibition of MAO-B (unknown origin) to IC50 for inhibition of MAO-A (unknown origin)
# Acetylcholinesterase [6] = molecular target: T1, Acetylcholinesterase (Homo sapiens, UniProt P22303); assay: Inhibition of AChE (unknown origin) using acetylthiocholine iodide as substrate preincubated for 20 mins followed by substrate addition by Ellman's method
# T1 sequence (P22303 whole entry): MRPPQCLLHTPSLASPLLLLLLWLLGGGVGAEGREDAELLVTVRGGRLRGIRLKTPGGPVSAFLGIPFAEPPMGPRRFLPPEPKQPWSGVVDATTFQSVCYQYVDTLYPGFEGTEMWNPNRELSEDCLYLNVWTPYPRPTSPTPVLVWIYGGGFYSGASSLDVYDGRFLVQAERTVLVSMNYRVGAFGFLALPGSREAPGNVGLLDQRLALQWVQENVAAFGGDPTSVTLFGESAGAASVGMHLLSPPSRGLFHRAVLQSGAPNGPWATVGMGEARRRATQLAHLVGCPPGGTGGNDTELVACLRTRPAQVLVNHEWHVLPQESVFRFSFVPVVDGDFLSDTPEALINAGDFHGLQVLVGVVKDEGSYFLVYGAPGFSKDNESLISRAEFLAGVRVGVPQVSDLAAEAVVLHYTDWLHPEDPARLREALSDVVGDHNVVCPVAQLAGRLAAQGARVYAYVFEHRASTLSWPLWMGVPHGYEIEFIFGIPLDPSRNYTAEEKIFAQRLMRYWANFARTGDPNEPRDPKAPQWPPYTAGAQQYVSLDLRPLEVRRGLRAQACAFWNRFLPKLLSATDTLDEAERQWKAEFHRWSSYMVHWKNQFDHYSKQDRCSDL
# Cholinesterase [7] = molecular target: T2, Cholinesterase (Homo sapiens, UniProt P06276); assay: Inhibition of BuChE (unknown origin) using butyrylthiocholine iodide as substrate preincubated for 20 mins followed by substrate addition by Ellman's method
# T2 sequence (P06276 whole entry): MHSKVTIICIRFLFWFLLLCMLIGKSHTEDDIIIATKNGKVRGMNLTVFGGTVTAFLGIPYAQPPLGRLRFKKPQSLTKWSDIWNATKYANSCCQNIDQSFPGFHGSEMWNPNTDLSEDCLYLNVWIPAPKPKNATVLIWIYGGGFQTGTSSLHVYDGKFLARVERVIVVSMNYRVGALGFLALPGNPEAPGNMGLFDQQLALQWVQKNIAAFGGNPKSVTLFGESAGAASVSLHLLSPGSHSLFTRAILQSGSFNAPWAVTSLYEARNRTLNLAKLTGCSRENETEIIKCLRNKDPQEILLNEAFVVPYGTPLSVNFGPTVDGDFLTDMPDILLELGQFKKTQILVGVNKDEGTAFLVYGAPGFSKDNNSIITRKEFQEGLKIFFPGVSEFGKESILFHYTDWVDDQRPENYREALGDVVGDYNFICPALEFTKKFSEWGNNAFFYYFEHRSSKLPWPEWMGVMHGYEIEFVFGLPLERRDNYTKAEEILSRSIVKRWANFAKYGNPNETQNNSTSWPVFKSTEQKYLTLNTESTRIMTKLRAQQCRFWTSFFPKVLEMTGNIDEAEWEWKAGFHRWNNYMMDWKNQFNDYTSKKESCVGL
# [8] = molecular target: T3, Amine oxidase [flavin-containing] A (Homo sapiens, UniProt P21397); assay: Inhibition of MAO-A (unknown origin)
# T3 sequence (P21397 whole entry): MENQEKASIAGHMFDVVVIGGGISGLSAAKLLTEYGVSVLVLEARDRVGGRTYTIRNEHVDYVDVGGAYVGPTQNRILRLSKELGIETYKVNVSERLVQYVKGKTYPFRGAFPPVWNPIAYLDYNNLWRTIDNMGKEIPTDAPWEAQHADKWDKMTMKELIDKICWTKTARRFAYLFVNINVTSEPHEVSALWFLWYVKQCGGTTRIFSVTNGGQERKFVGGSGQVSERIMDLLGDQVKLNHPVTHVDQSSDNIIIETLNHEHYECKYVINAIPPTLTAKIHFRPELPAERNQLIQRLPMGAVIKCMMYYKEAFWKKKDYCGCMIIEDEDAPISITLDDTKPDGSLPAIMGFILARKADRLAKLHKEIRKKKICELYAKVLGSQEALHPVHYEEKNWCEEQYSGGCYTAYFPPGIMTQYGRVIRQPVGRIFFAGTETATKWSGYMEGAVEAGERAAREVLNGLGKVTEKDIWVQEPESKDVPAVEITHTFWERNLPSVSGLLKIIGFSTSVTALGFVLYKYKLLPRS
# [9] = Selectivity index, ratio of Ki for displacement of [3H](+)-pentazocine from human sigma 1 receptor expressed in human HEK293 cells to Ki for displacement of (+)-[3H]DTG from rat sigma 2 receptor; format: cell-based
# [10] = molecular target: Amyloid-beta precursor protein (Homo sapiens) (UniProt P05067); assay: Inhibition of amyloid beta (1 to 42) (unknown origin) aggregation at 50 uM incubated for 24 hrs by ThT fluorometric assay
# [11] = molecular target: T4, Amine oxidase [flavin-containing] B (Homo sapiens, UniProt P27338); assay: Inhibition of MAO-B (unknown origin)
# T4 sequence (P27338 whole entry): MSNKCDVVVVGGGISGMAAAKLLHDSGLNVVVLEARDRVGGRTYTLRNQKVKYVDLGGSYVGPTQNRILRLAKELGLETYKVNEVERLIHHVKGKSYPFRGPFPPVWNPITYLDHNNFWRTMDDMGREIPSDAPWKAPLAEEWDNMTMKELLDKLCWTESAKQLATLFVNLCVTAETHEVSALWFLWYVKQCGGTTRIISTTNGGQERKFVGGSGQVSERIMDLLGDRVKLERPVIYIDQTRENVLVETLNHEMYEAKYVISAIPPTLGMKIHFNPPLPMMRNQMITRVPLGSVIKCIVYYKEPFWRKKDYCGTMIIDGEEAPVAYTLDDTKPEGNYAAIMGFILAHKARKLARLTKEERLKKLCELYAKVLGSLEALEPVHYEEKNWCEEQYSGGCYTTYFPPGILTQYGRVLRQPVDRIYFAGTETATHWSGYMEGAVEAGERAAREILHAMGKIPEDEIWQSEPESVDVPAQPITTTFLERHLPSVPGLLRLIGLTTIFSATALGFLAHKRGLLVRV
# [12] = molecular target: T4, Amine oxidase [flavin-containing] B; assay: Inhibition of recombinant human MAO-B using kynuramine as substrate preincubated for 10 mins followed by enzyme addition and measured after 20 mins by fluorescent microplate reader analysis
# Homo sapiens [13] = organism: Homo sapiens; assay: Selectivity index, ratio of IC50 for inhibition of recombinant human MAO-B to IC50 for inhibition of recombinant human MAO-A
# [14] = molecular target: Amyloid-beta precursor protein (Homo sapiens) (UniProt P05067); assay: Inhibition of amyloid beta (unknown origin); details: concentration not given here
# Homo sapiens [15] = organism: Homo sapiens; assay: Selectivity index, ratio of IC50 for inhibition of recombinant human MAO-A to IC50 for inhibition of recombinant human MAO-B
# SH-SY5Y = assay: Neuroprotective activity against 6-OHDA-induced cell death in human SH-SY5Y cells assessed as cell viability; format: functional, cell-based
# Beta-secretase 1 = Beta-secretase 1 (Homo sapiens, UniProt P56817); assay: Inhibition of recombinant human BACE-1 expressed in baculovirus using Rh-EVNLDAEFK-Quencher as substrate incubated for 60 mins by FRET assay
# Sequence of Beta-secretase 1 (P56817 whole entry): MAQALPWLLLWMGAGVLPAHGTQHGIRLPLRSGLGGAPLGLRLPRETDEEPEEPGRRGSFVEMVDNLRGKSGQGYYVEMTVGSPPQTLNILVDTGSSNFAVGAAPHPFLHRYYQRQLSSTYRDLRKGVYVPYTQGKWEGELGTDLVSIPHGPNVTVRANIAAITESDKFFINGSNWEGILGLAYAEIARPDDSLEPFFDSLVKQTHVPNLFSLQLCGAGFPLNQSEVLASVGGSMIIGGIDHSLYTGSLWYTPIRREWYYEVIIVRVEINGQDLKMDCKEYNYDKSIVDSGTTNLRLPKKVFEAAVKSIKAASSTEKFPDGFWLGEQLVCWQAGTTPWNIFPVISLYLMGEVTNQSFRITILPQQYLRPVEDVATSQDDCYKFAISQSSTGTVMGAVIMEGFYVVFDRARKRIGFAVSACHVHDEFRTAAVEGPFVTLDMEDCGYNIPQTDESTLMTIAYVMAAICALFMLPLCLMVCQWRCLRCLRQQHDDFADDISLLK
# [16] = molecular target: T3, Amine oxidase [flavin-containing] A; assay: Inhibition of recombinant human MAO-A using kynuramine as substrate preincubated for 10 mins followed by enzyme addition and measured after 20 mins by fluorescent microplate reader analysis
# [17] = molecular target: T5, Polyunsaturated fatty acid 5-lipoxygenase (Homo sapiens, UniProt P09917); assay: Inhibition of LOX5 (unknown origin)
# T5 sequence (P09917 whole entry): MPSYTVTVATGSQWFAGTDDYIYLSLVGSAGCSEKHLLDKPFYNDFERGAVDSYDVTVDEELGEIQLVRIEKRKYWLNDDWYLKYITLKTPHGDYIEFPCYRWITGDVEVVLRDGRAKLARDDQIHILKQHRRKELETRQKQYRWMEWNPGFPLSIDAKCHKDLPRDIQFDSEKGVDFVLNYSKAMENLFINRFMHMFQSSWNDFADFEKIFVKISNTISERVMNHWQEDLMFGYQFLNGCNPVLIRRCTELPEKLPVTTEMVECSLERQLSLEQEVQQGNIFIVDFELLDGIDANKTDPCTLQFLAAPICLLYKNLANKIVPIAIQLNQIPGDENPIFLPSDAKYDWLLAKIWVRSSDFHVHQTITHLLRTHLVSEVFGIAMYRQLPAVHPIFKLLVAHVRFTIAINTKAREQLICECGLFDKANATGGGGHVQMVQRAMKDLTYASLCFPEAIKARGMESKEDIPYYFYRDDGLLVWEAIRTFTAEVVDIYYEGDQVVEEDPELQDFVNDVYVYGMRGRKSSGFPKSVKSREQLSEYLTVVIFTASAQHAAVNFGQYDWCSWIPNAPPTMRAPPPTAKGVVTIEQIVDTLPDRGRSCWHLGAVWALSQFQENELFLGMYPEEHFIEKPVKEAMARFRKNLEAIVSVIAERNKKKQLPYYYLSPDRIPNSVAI
# [18] = molecular target: T6, Prostaglandin G/H synthase 2 (Homo sapiens, UniProt P35354); assay: Inhibition of COX2 (unknown origin)
# T6 sequence (P35354 whole entry): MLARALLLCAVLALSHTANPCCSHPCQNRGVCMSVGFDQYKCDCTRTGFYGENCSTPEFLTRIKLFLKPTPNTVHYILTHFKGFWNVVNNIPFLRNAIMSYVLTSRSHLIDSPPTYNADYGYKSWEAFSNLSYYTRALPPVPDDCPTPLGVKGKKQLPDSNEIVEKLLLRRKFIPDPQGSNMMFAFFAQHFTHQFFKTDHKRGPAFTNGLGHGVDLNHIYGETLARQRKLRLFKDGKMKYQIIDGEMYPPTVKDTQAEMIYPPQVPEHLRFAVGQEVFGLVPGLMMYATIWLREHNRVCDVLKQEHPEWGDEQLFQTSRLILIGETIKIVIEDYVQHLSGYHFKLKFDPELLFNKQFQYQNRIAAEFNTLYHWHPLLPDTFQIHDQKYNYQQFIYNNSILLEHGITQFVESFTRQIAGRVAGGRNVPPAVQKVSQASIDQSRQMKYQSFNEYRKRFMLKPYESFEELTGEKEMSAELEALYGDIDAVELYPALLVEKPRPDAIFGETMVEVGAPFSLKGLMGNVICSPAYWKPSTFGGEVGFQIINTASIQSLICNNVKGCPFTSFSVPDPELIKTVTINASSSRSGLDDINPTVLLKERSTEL
# Acetylcholinesterase [19] = molecular target: T1, Acetylcholinesterase; assay: Inhibition of recombinant human AChE using acetylthiocholine as substrate preincubated for 15 mins followed by substrate addition and measured after 5 mins by DTNB reagent based Ellman's method
# Cholinesterase [20] = molecular target: T2, Cholinesterase; assay: Inhibition of recombinant human BuChE using butyrylthiocholine as substrate preincubated for 15 mins followed by substrate addition and measured after 5 mins by Ellman's method
# [21] = molecular target: T6, Prostaglandin G/H synthase 2; assay: Inhibition of COX2 (unknown origin) using arachidonic acid as substrate preincubated for 5 mins followed by substrate addition by microplate spectrophotometric analysis
# [22] = molecular target: T5, Polyunsaturated fatty acid 5-lipoxygenase; assay: Inhibition of human LOX5 using arachidonic acid preincubated for 10 mins followed by substrate addition by microplate spectrophotometric analysis
# [23] = Inhibition of soybean LOX15 using arachidonic acid preincubated for 5 mins followed by substrate addition and measured after 5 mins by microplate spectrophotometric analysis; design: species or system Glycine max
# [24] = molecular target: T4, Amine oxidase [flavin-containing] B; assay: Inhibition of human MAO-B using tyramine as substrate preincubated for 10 mins followed by substrate addition and measured after 30 mins by fluorometric method
# Homo sapiens [25] = organism: Homo sapiens; assay: Selectivity index, ratio of IC50 for inhibition of human MAO-B to IC50 for inhibition of human MAO-A
# [26] = molecular target: T3, Amine oxidase [flavin-containing] A; assay: Inhibition of MAO-A (unknown origin) by fluorescence spectrophotometer analysis
# [27] = molecular target: T4, Amine oxidase [flavin-containing] B; assay: Inhibition of MAO-B (unknown origin) by fluorescence spectrophotometer analysis
# Cholinesterase [28] = molecular target: T2, Cholinesterase; assay: Inhibition of BuChE (unknown origin)
# [29] = molecular target: Amyloid-beta precursor protein (Homo sapiens) (UniProt P05067); assay: Inhibition of self-induced amyloid beta (1 to 42) (unknown origin) aggregation by ThT fluorometric assay; details: concentration not given here
# Sequence of Acetylcholinesterase (Electrophorus electricus, UniProt O42275) (O42275 whole entry): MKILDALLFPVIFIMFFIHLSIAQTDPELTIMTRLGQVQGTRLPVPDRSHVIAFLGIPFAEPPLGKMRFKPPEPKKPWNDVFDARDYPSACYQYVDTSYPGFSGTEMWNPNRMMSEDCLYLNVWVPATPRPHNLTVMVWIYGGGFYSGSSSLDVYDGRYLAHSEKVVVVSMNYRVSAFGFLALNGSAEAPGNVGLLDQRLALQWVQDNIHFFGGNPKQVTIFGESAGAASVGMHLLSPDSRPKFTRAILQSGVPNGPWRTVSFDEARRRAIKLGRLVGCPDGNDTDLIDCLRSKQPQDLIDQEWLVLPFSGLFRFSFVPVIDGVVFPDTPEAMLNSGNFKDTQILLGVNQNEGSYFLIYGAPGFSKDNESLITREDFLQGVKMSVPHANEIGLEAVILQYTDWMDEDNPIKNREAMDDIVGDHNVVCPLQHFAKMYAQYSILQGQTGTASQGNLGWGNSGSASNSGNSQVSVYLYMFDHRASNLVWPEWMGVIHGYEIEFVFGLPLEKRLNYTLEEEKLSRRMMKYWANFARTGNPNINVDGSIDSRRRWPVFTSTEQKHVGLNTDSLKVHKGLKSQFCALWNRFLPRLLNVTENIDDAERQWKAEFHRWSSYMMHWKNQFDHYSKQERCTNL
smiles,measurement,setting,value
CCc1cc[n+](CCCOc2ccc3c(=O)cc(-c4ccc(OC)cc4)oc3c2)cc1,IC50,Acetylcholinesterase [1],3000 nM
same,IC50,Cholinesterase [2],700 nM
same,inhibition,[3],32%
same,inhibition,[4],37%
O=c1cc(-c2ccc(Cl)cc2)oc2ccc(Cn3cc(Oc4cccc(O)c4)nn3)cc12,Ratio IC50,Homo sapiens [5],> 14
O=c1c(O)c(-c2ccccc2)oc2cc(Br)c(I)cc12,IC50,Acetylcholinesterase [6],10000 nM
same,IC50,Cholinesterase [7],6000 nM
COc1ccc2oc(-n3cncn3)cc(=O)c2c1,IC50,[8],23 nM
O=c1ccoc2ccc(OCCCCCN3CCOCC3)cc12,Ratio Ki,[9],130
COc1cccc2oc3c(c(=O)c12)[C@H](O)CC3,inhibition,[10],74%
COc1ccc2c(=O)c(N3CCN(c4ccccc4)CC3)coc2c1,IC50,[11],15 nM
same,IC50,[12],15 nM
same,Ratio IC50,Homo sapiens [13],> 6700
COc1cccc2oc3c(c(=O)c12)[C@@H](O)CC3,inhibition,[14],80.4%
same,inhibition,[10],80%
COc1ccc2oc(/C=C/c3ccc(Cl)cc3)cc(=O)c2c1,Ratio IC50,Homo sapiens [15],1500
COCOc1cc2occ(-c3ccc(OC)cc3)c(=O)c2c2c1CC(O)C(C)(C)O2 (stereo not drawn),EC50,SH-SY5Y,500 nM
COc1ccc(-c2oc3cc(Br)c(I)cc3c(=O)c2O)cc1,IC50,Beta-secretase 1,16000 nM
COc1ccc2oc(-n3ccc4ccccc43)cc(=O)c2c1,IC50,[16],320 nM
same,IC50,[12],630 nM
O=c1c(/C=N/Nc2ccc(C(F)(F)F)cc2)coc2c1ccc1oc(-c3ccc(Cl)cc3)cc12,IC50,[17],28500 nM
same,IC50,[18],10400 nM
same,IC50,Beta-secretase 1,14000 nM
same,IC50,Acetylcholinesterase [19],5000 nM
same,IC50,Cholinesterase [20],10000 nM
same,IC50,[21],10000 nM
same,IC50,[22],29000 nM
same,IC50,[23],15000 nM
COc1ccc(NC(=O)c2c(OCc3ccccc3)ccc3c(=O)c(C)c(C)oc23)cc1,IC50,[24],100 nM
same,Ratio IC50,Homo sapiens [25],324
O=c1cc(-c2ccc(Cl)cc2)oc2cc(OCCCC[n+]3ccccc3)ccc12,IC50,Acetylcholinesterase [1],6 nM
same,IC50,Cholinesterase [2],2000 nM
same,inhibition,[3],28%
same,inhibition,[4],22%
O=c1ccoc2ccc(OCCCN3CCCCCC3)cc12,Ratio Ki,[9],28
COc1ccc2c(=O)cc(-n3ccc4ccccc43)oc2c1,IC50,[12],150 nM
same,Ratio IC50,Homo sapiens [13],> 670
COc1ccc2ccn(-c3cc(=O)c4ccccc4o3)c2c1,IC50,[12],150 nM
same,Ratio IC50,Homo sapiens [13],> 670
O=c1cc(-c2ccc(Cl)cc2)oc2ccc(Cn3cc(Nc4ccc(F)cc4)nn3)cc12,IC50,[26],1600 nM
same,IC50,[27],2100 nM
O=C(CCCCC1CCSS1)NCc1cn(CCCCOc2ccc3c(=O)ccoc3c2)nn1 (stereo not drawn),IC50,Cholinesterase [28],8000 nM
same,inhibition,[29],13%
